This data set in a line: Solubility test of each organic compound in pure water by LC-MS analysis. Conditions: 1 mg compound in 1 mL water, ultrasonic waves five minutes, filtered, evaluated from LC peak area; for solubility at 5 min: pure water, thermodynamic from solid. The data set is classed as physicochemical. The protocol:
In the LC-MS analysis, liquid chromatography (LC) separation was carried out with ACQUITY UPLC (Waters Corporation), and mass spectrometry (MS) analysis was carried out with Xevo G2 Tof MS (Waters Corporation). Note that this analysis was performed on Hid2Phen, Pyrrd-Phen, and PrdP2Phen. ACQUITY UPLC BEH C8 (2.1×100 mm, 1.7 μm) was used as a column for the LC separation. Acetonitrile was used for Mobile Phase A and a 0.1% aqueous solution of formic acid was used for Mobile Phase B. The injection amount of the sample was 5.0 μL. Note that in the analysis, the wavelength of a photodiode array detector was set to 263 nm±1 nm.
Then, in a 5-mL sample bottle, 1 mg of each organic compound was put and 1 mL of water was added thereto. The mixture was irradiated with ultrasonic waves for five minutes. The mixture was filtered through a membrane filter to remove the solid. The resulting solution was subjected to the LC-MS analysis to create a chromatogram. The solubility was evaluated from the area of a peak in the chromatograph.

3 compounds from patent US20250248209A1, “LIGHT-EMITTING DEVICE” (SEMICONDUCTOR ENERGY LABORATORY CO., LTD., priority 2024, published 2025) can be followed below.

Molecules are shown by their SMILES. ≈ marks a conversion by molar mass, not a printed value. Entries after “also recorded” stand apart in the source; their conditions may differ.

Take `c1cc(-c2ccc(N3CCCC3)cc2)c2ccc3c(-c4ccc(N5CCCC5)cc4)ccnc3c2n1` [PrdP2Phen, 4,7-bis[4-(1-pyrrolidinyl)phenyl]-1,10-phenanthroline]: the “Solubility in pure water” value was “below the lower detection limit; also recorded: extremely low solubility in pure water; also recorded: Not detected”. Turning to `c1cc(N2CC3CCCCC3C2)c2ccc3c(N4CC5CCCCC5C4)ccnc3c2n1` (stereo not drawn) [Hid2Phen, 4,7-di(2,3,3a,4,5,6,7,7a-octahydro-^1H-isoindol-2-yl)-1,10-phenanthroline], the solubility at 5 min was 5.5 µg/mL (≈ 12.9 µM). The same measure, in the same setting: next, `c1cc(N2CCCC2)c2ccc3c(N4CCCC4)ccnc3c2n1` [Pyrrd-Phen, 4,7-di-1-pyrrolidinyl-1,10-phenanthroline]: at least 50 µg/mL.
